Results reported in US10233173B2, “Substituted 1,2,3-triazoles as NR2B-selective NMDA modulators” (JANSSEN PHARMACEUTICA NV, priority 2016, dated 2019).

molecular target: human GluN1/GluN2B NMDA receptors (Homo sapiens, UniProt Q05586+Q13224); experiment: Cell-based calcium flux (FLIPR) assay on cloned human NR1/NR2B ion channels expressed in mammalian cells; details: standard assay; glutamate at ~EC80; FLIPR calcium flux
In short: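 Calcium influx followed by FLIPR fluorescence after 5 min compound exposure and a further 5 min co-agonist challenge: 10 μM glycine with glutamate at ~EC80 (standard) or EC40 (HTS).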

human GluN1/GluN2B NMDA receptors, sequence (Q13224 27-1484, other chains not shown): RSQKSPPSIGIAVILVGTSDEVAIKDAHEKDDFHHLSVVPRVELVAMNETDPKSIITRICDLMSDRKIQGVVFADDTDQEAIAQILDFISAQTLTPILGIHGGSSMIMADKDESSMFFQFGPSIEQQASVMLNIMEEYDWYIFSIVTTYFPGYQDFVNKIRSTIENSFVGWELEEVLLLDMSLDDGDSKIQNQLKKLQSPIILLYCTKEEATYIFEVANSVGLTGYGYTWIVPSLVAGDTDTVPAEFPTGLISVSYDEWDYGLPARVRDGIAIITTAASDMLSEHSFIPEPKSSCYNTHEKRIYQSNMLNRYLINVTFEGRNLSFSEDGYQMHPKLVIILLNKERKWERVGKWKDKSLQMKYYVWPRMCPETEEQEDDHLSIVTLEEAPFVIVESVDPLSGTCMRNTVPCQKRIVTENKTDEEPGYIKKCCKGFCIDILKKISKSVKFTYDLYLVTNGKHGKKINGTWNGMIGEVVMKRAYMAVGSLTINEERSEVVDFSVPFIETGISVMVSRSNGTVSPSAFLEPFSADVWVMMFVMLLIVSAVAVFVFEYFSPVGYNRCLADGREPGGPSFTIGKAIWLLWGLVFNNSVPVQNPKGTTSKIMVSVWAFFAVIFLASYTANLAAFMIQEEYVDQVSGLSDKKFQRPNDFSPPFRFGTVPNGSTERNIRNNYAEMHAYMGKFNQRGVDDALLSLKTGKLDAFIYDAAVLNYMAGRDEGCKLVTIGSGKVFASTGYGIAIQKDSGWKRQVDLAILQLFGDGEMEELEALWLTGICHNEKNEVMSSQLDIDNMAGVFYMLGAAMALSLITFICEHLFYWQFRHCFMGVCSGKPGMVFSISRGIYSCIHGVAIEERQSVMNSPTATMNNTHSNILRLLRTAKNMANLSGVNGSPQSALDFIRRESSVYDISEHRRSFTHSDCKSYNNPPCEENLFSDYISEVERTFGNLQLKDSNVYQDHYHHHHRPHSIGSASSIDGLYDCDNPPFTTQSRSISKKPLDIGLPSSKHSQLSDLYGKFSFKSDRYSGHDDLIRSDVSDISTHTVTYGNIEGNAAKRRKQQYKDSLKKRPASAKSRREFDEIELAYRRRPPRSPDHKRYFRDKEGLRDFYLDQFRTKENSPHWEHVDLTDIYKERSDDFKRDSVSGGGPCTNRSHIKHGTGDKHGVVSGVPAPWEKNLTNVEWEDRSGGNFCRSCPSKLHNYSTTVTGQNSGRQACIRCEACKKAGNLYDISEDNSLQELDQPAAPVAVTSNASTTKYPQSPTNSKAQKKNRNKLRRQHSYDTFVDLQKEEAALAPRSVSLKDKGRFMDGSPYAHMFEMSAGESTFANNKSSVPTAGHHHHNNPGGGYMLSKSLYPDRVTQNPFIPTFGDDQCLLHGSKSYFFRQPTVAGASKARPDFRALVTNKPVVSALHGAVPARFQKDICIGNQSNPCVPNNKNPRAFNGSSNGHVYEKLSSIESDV

Row | Compound | IC50
1 | COCc1ccnc(OCc2cn(-c3ccc(F)c(C)c3F)nn2)n1 [Example 645, 2-[[1-(2,4-Difluoro-3-methyl-phenyl)triazol-4-yl]methoxy]-4-(methoxymethyl)pyrimidine] | 0.799 µM
2 | Cc1c(F)ccc(-n2cc(COc3ncc(OC(F)F)cn3)nn2)c1F [Example 646, 5-(Difluoromethoxy)-2-[[1-(2,4-difluoro-3-methyl-phenyl)triazol-4-yl]methoxy]pyrimidine] | 0.099 µM
3 | Cc1c(F)ccc(-n2cc(COc3ncc(C4CC4)cn3)nn2)c1F [Example 647, 5-Cyclopropyl-2-[[1-(2,4-difluoro-3-methyl-phenyl)triazol-4-yl]methoxy]pyrimidine] | 0.034 µM
4 | Cc1c(F)ccc(-n2cc(COc3nccc(C4CC4)n3)nn2)c1F [Example 648, 4-Cyclopropyl-2-[[1-(2,4-difluoro-3-methyl-phenyl)triazol-4-yl]methoxy]pyrimidine] | 0.592 µM
5 | Cc1nc(OCc2cn(-c3ccc(F)c(C)c3F)nn2)ncc1F [Example 649, 2-[[1-(2,4-Difluoro-3-methyl-phenyl)triazol-4-yl]methoxy]-5-fluoro-4-methyl-pyrimidine] | 0.152 µM
6 | Cc1nc(OCc2cn(-c3ccc(F)c(C)c3F)nn2)ncc1Cl [Example 650, 5-Chloro-2-[[1-(2,4-difluoro-3-methyl-phenyl)triazol-4-yl]methoxy]-4-methyl-pyrimidine] | 0.005 µM
7 | Cc1cnc(OCc2cn(-c3ccc(F)c(C)c3F)nn2)nc1N [Example 651, 2-[[1-(2,4-Difluoro-3-methyl-phenyl)triazol-4-yl]methoxy]-5-methyl-pyrimidin-4-amine] | 0.262 µM
8 | Fc1ccc(-n2cc(COc3ncc(C(F)(F)F)cn3)nn2)c(F)c1C(F)F [Example 652, 2-[[1-[3-(Difluoromethyl)-2,4-difluoro-phenyl]triazol-4-yl]methoxy]-5-(trifluoromethyl)pyrimidine] | 0.112 µM
9 | Cc1cc(-n2cc(COc3ncc(Cl)cn3)nn2)c(F)cc1F [Example 653, 5-Chloro-2-[[1-(2,4-difluoro-5-methyl-phenyl)triazol-4-yl]methoxy]pyrimidine] | 1.49 µM
10 | Cc1cnc(OCc2cn(-c3cc(C)c(F)cc3F)nn2)nc1 [Example 654, 2-[[1-(2,4-Difluoro-5-methyl-phenyl)triazol-4-yl]methoxy]-5-methyl-pyrimidine] | 0.979 µM
11 | CCc1cnc(OCc2cn(-c3cc(C)c(F)cc3F)nn2)nc1 [Example 655, 2-[[1-(2,4-Difluoro-5-methyl-phenyl)triazol-4-yl]methoxy]-5-ethyl-pyrimidine] | 0.507 µM
12 | Cc1cc(-n2cc(COc3ncc(C(F)F)cn3)nn2)c(F)cc1F [Example 656, 5-(Difluoromethyl)-2-[[1-(2,4-difluoro-5-methyl-phenyl)triazol-4-yl]methoxy]pyrimidine] | 1.51 µM
13 | Cc1cc(-n2cc(COc3ncc(Cl)c(C)n3)nn2)c(F)cc1F [Example 657, 5-Chloro-2-[[1-(2,4-difluoro-5-methyl-phenyl)triazol-4-yl]methoxy]-4-methyl-pyrimidine] | 0.781 µM
14 | Cc1cc(-n2cc(COc3ncc(C4CC4)cn3)nn2)c(F)cc1F [Example 658, 5-Cyclopropyl-2-[[1-(2,4-difluoro-5-methyl-phenyl)triazol-4-yl]methoxy]pyrimidine] | 0.424 µM
15 | Cc1cccc(-n2cc(COc3ncc(Cl)cn3)nn2)n1 [Example 659, 5-Chloro-2-[[1-(6-methyl-2-pyridyl)triazol-4-yl]methoxy]pyrimidine] | > 2.99 µM
16 | CCc1cnc(OCc2cn(-c3cccc(C)n3)nn2)nc1 [Example 660, 5-Ethyl-2-[[1-(6-methyl-2-pyridyl)triazol-4-yl]methoxy]pyrimidine] | > 2.99 µM
17 | Cc1cccc(-n2cc(COc3ncc(Cl)c(C)n3)nn2)n1 [Example 661, 5-Chloro-4-methyl-2-[[1-(6-methyl-2-pyridyl)triazol-4-yl]methoxy]pyrimidine] | > 2.99 µM
18 | Cc1cnc(OCc2cn(-c3cc(C)ccn3)nn2)nc1 [Example 662, 5-Methyl-2-[[1-(4-methyl-2-pyridyl)triazol-4-yl]methoxy]pyrimidine] | > 2.99 µM

Row | Compound | IC50
19 | CCc1cnc(OCc2cn(-c3cc(C)ccn3)nn2)nc1 [Example 663, 5-Ethyl-2-[[1-(4-methyl-2-pyridyl)triazol-4-yl]methoxy]pyrimidine] | 2.45 µM
20 | CCc1cnc(OCc2cn(-c3ccnc(C)c3)nn2)nc1 [Example 664, 5-Ethyl-2-[[1-(2-methyl-4-pyridyl)triazol-4-yl]methoxy]pyrimidine] | 0.169 µM
21 | CCc1cnc(OCc2cn(-c3ccnc(Br)c3)nn2)nc1 [Example 665, 2-[[1-(2-Bromo-4-pyridyl)triazol-4-yl]methoxy]-5-ethyl-pyrimidine] | 0.261 µM
22 | Cc1cnc(OCc2cn(-c3ccnc(C(F)(F)F)c3)nn2)nc1 [Example 666, 5-Methyl-2-[[1-[2-(trifluoromethyl)-4-pyridyl]triazol-4-yl]methoxy]pyrimidine] | 0.668 µM
23 | CCc1cnc(OCc2cn(-c3ccnc(C(F)(F)F)c3)nn2)nc1 [Example 667, 5-Ethyl-2-[[1-[2-(trifluoromethyl)-4-pyridyl]triazol-4-yl]methoxy]pyrimidine] | 0.184 µM
24 | Cc1nc(OCc2cn(-c3ccc(C(F)(F)F)s3)nn2)ncc1F [Example 668, 5-Fluoro-4-methyl-2-((1-(5-(trifluoromethyl)thiophen-2-yl)-1H-1,2,3-triazol-4-yl)methoxy)pyrimidine] | 0.008 µM
25 | COc1cnc(OCc2cn(-c3ccc(C(F)(F)F)s3)nn2)nc1 [Example 669, 5-Methoxy-2-((1-(5-(trifluoromethyl)thiophen-2-yl)-1H-1,2,3-triazol-4-yl)methoxy)pyrimidine] | 0.004 µM
26 | FC(F)(F)c1cnc(OCc2cn(-c3ccc(C(F)(F)F)s3)nn2)nc1 [Example 670, 5-(Trifluoromethyl)-2-((1-(5-(trifluoromethyl)thiophen-2-yl)-1H-1,2,3-triazol-4-yl)methoxy)pyrimidine] | 0.063 µM
27 | Fc1ccc(-n2cc(COc3nccc(NC4COC4)n3)nn2)cc1OC(F)F [Example 671, 2-((1-(3-(Difluoromethoxy)-4-fluorophenyl)-1H-1,2,3-triazol-4-yl)methoxy)-N-(oxetan-3-yl)pyrimidin-4-amine] | 0.126 µM
28 | Fc1ccc(-n2cc(COc3nccc(-c4ccc[nH]4)n3)nn2)cc1OC(F)F [Example 681, 2-((1-(3-(Difluoromethoxy)-4-fluorophenyl)-1H-1,2,3-triazol-4-yl)methoxy)-4-(1H-pyrrol-2-yl)pyrimidine] | 0.681 µM
29 | Fc1ccc(-n2cc(COc3nccc(NC4CC4)n3)nn2)cc1C(F)F [Example 690, N-Cyclopropyl-2-((1-(3-(difluoromethyl)-4-fluorophenyl)-1H-1,2,3-triazol-4-yl)methoxy)pyrimidin-4-amine] | 0.008 µM
30 | CCNc1ccnc(OCc2cn(-c3ccc(F)c(C(F)F)c3)nn2)n1 [Example 691, N-Ethyl-2-((1-(3-(difluoromethyl)-4-fluorophenyl)-1H-1,2,3-triazol-4-yl)methoxy)pyrimidin-4-amine] | 0.006 µM
31 | Cc1nccn1-c1ccnc(OCc2cn(-c3ccc(F)c(C(F)F)c3)nn2)n1 [Example 692, 2-((1-(3-(Difluoromethyl)-4-fluorophenyl)-1H-1,2,3-triazol-4-yl)methoxy)-4-(2-methyl-1H-imidazol-1-yl)pyrimidine] | 1.58 µM
32 | CC(F)(F)c1ccnc(OCc2cn(-c3ccc(F)c(C(F)F)c3)nn2)n1 [Example 696, 4(1,1-Difluoroethyl)-2-((1-(3-(difluoromethyl)-4-fluorophenyl)-1H-1,2,3-triazol-4-yl)methoxy)pyrimidine] | 0.958 µM
33 | Fc1ccc(-n2cc(COc3nccc(-n4cccn4)n3)nn2)cc1C(F)F [Example 699, 2-((1-(3-(Difluoromethyl)-4-fluorophenyl)-1H-1,2,3-triazol-4-yl)methoxy)-4-(1H-pyrazol-1-yl)pyrimidine] | 0.389 µM
34 | CC(F)(F)c1cnc(OCc2cn(-c3ccc(F)c(C(F)F)c3)nn2)nc1 [Example 701, 5-(1,1-Difluoroethyl)-2-((1-(3-(difluoromethyl)-4-fluorophenyl)-1H-1,2,3-triazol-4-yl)methoxy)pyrimidine] | 0.958 µM
35 | CCOCc1ccnc(OCc2cn(-c3ccc(F)c(OC(F)F)c3)nn2)n1 [Example 711, 2-((1-(3-(Difluoromethoxy)-4-fluorophenyl)-1H-1,2,3-triazol-4-yl)methoxy)-4-(ethoxymethyl)pyrimidine] | 0.043 µM
36 | Fc1ccc(-n2cc(COc3nccc(COCC(F)F)n3)nn2)cc1OC(F)F [Example 716, 4-((2,2-Difluoroethoxy)methyl)-2-((1-(3-(difluoromethoxy)-4-fluorophenyl)-1H-1,2,3-triazol-4-yl)methoxy)pyrimidine] | 0.049 µM
